Assay results: patent US10196363B2, “Dihydropyrimidin-2-one compounds and medical use thereof” (JAPAN TOBACCO INC., priority 2014, dated 2019)
Like-named read-outs stand apart in the source and are kept apart here.

Legend:
human RORγ = molecular target: T1, human RORγ (Homo sapiens, UniProt P51449); experiment: In vitro assay of inhibitory effect against RORγ transcriptional activity (GAL4-hRORγ LBD luciferase reporter gene assay in CHO cells); format: cell-based; conditions: for hRORγ luciferase activity, %-of-control: value in parentheses beside the > EC50 bound, vehicle-control 0.2% DMSO alone = 100%
T1 construct: human RORγ, from Ser253 to Lys518; expressed in transfected cells; host or cells: CHO cells (Chinese hamster ovary), transient co-transfection with pG5-Luc
T1 sequence (P51449 253-518): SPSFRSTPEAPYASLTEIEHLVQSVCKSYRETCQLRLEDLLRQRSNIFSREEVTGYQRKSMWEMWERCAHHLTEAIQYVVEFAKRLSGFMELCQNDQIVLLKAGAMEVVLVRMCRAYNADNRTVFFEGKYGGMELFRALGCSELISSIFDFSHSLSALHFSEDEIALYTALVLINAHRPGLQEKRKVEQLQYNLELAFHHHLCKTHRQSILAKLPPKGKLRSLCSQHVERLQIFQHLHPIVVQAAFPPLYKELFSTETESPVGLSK
How it was run: (§1)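 Luciferase output, normalised to 0.2% DMSO vehicle (100%), served as the measure of RORγ transcriptional activity. The reporter was driven by GAL4-fused ligand-binding domains of human (residues 253–518) or mouse (251–516) RORγ in transiently transfected CHO cells. Cells received eight-point compound dilutions for 2 days, EC50 values were fitted, and cytotoxic points were dropped.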

mouse RORγ = molecular target: T2, mouse RORγ (Mus musculus, UniProt P51450); experiment: In vitro assay of inhibitory effect against RORγ transcriptional activity (GAL4-mRORγ LBD luciferase reporter gene assay in CHO cells); format: cell-based; conditions: for mRORγ luciferase activity, %-of-control: value in parentheses beside the > EC50 bound, vehicle-control 0.2% DMSO alone = 100%
T2 construct: mouse RORγ, from Ile251 to Lys516; expressed in transfected cells; host or cells: CHO cells (Chinese hamster ovary), transient co-transfection with pG5-Luc
T2 sequence (P51450 251-516): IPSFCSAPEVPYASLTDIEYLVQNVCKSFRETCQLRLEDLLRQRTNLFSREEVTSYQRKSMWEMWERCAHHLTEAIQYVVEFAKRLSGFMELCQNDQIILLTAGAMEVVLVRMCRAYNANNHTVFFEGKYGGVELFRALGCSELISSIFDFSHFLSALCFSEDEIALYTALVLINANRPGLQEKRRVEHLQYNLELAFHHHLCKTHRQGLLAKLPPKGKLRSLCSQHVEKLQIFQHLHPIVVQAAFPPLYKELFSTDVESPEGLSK
How it was run: as §1

[1] = GAL4-hRORγ LBD / pG5-Luc in CHO cells, 2 days incubation
[2] = GAL4-mRORγ LBD / pG5-Luc in CHO cells, 2 days incubation
[3] = GAL4-hRORγ LBD luciferase reporter, CHO cells, read-out: LUC EC50 hRORγ
[4] = GAL4-mRORγ LBD luciferase reporter, CHO cells, read-out: LUC EC50 mRORγ

| Structure (SMILES) | EC50 (human RORγ; [1]) [µM] | hRORγ luciferase activity, %-of-control (human RORγ) | EC50 (mouse RORγ; [2]) [µM] | mRORγ luciferase activity, %-of-control (mouse RORγ) | EC50 (human RORγ; [3]) [µM] | EC50 (mouse RORγ; [4]) [µM] |
| --- | --- | --- | --- | --- | --- | --- |
| CC(C)C1=CN([C@H]2C[C@H](C(=O)O)C2)C(=O)N[C@]1(C)c1ccc(CCC(C)(C)C)c(Cl)c1 [Example 41] | > 8 | (59%) | > 8 | (61%) |  |  |
| CC(C)C1=CN(c2ccc(C(=O)O)c(C(F)(F)F)c2)C(=O)N[C@@]1(C)c1ccc(CCC(C)(C)C)c(Cl)c1 [Example 283] |  |  |  |  | 0.018 | 0.028 |
| CC(C)Cc1ccc(C2(C)NC(=O)N(CCCC(=O)O)C=C2C(C)C)cc1 (racemic) [Example 106] | 1.16 |  | 0.616 |  |  |  |
| CCCCc1ccc(C2(C)NC(=O)N(CCCC(=O)O)C=C2C(C)C)cc1 (racemic) [Example 84] | 0.746 |  | 0.502 |  |  |  |
| CC(C)C1=CN([C@H]2C[C@@H](C(=O)O)C2)C(=O)N[C@]1(C)c1ccc(CCC(C)(C)C)c(Cl)c1 [Example 45] | 7.33 |  | 7.51 |  |  |  |
| CC(C)C1=CN(C2CCC(C(=O)O)C2)C(=O)N[C@@]1(C)c1ccc(CCC(C)(C)C)c(Cl)c1 (single isomer, unassigned) [Example 280] |  |  |  |  | 0.026 | 0.042 |
| CO[C@H]1C[C@H](N2C=C([C@H]3C[C@@H](C(=O)O)C3)[C@](C)(c3ccc(CCC(C)(C)C)c(Cl)c3)NC2=O)C1 [Example 200] |  |  |  |  | 0.014 | 0.023 |
| CC(C)C1=CN(CCc2ccc(C(=O)O)cc2)C(=O)N[C@]1(C)c1ccc(CCC(C)(C)C)c(Cl)c1 [Example 49] | 0.983 |  | 0.832 |  |  |  |
| C[C@@]1(c2ccc(OCCC3CC3)c(Cl)c2)NC(=O)N(c2ccc(C(=O)O)cc2)C=C1C1CC(F)(F)C1 [Example 350] |  |  |  |  | 0.109 | 0.052 |
| CC(C)C1=CN([C@H]2CC[C@@H](C(=O)O)CC2)C(=O)N[C@]1(C)c1ccc(CCC(C)(C)C)c(Cl)c1 [Example 66] | 3.61 |  | 2.68 |  |  |  |
| COCCN1C=C(c2cnn(C(C)(C)C(=O)O)c2)[C@](C)(c2ccc(CCC(C)(C)C)c(Cl)c2)NC1=O [Example 296] |  |  |  |  | 3.72 | 4.53 |
| CC(C)C1=CN(CCOCC(=O)O)C(=O)NC1(C)c1ccc(CCC(C)(C)C)c(Cl)c1 (single isomer, unassigned) [Example 40] | 0.152 |  | 0.198 |  |  |  |
| CC(C)C1=CN(CCC(=O)O)C(=O)N[C@@]1(C)c1ccc2c(c1)CC(C)(C)C2 [Example 113] | 3.03 |  | 1.4 |  |  |  |
| CC(C)C1=CN(CCC(=O)O)C(=O)N[C@@]1(C)c1cc(F)c(CCC(C)(C)C)c(Cl)c1 [Example 175] | 0.009 |  | 0.012 |  |  |  |
| CC(C)C1=CN(CCCC(=O)O)C(=O)N[C@@]1(C)c1ccc(CCC(C)(C)C)c(Cl)c1 [Example 15] | 0.012 |  | 0.012 |  |  |  |
| CC(C)(C)COc1ccc(C2NC(=O)NC=C2C(C)(C)CC(=O)O)cc1Cl (racemic) [Example 4] | 1.44 |  | 0.675 |  |  |  |
| CC(C)C1=CN(CCC(=O)O)C(=O)N[C@@]1(C)c1cc(F)c(OCc2ccccc2)c(Cl)c1 [Example 161] | 0.154 |  | 0.047 |  |  |  |
| COc1cc(N2C=C(C(C)C)[C@](C)(c3ccc(CCC(C)(C)C)c(C(F)(F)F)c3)NC2=O)ccc1C(=O)O [Example 345] |  |  |  |  | 0.042 | 0.023 |
| CC(C)CCC1=CN(CCCC(=O)O)C(=O)N[C@@]1(C)c1ccc(CCC(C)(C)C)c(Cl)c1 [Example 44] | 0.051 |  | 0.09 |  |  |  |
| CC(C)C1=CN(CCC(C)(C)C(=O)O)C(=O)N[C@@]1(C)c1ccc(CCC(C)(C)C)c(Cl)c1 [Example 55] | 0.022 |  | 0.026 |  |  |  |
| COCCC1=CN(c2ccc(C(=O)O)cn2)C(=O)N[C@@]1(C)c1ccc(CC2CCCCC2)c(Cl)c1 [Example 338] |  |  |  |  | 0.013 | 0.012 |
| CC(C)(C)CCc1ccc([C@]2(C)NC(=O)N(C34CC(C(=O)O)(C3)C4)C=C2C2CC(F)(F)C2)cc1C(F)(F)F [Example 341] |  |  |  |  | 0.067 | 0.032 |
| COCCC1=CN(C23CCC(C(=O)O)(C2)C3)C(=O)N[C@@]1(C)c1ccc(CCC(C)(C)C)c(C(F)(F)F)c1 [Example 324] |  |  |  |  | 0.047 | 0.036 |

| Structure (SMILES) | EC50 (human RORγ; [1]) [µM] | hRORγ luciferase activity, %-of-control (human RORγ) | EC50 (mouse RORγ; [2]) [µM] | mRORγ luciferase activity, %-of-control (mouse RORγ) | EC50 (human RORγ; [3]) [µM] | EC50 (mouse RORγ; [4]) [µM] |
| --- | --- | --- | --- | --- | --- | --- |
| Cc1cc(N2C=C(C(C)C)[C@](C)(c3ccc(CCC(C)(C)C)c(Cl)c3)NC2=O)ccc1C(=O)O [Example 266] |  |  |  |  | 0.012 | 0.017 |
| CC(C)CCOc1ccc([C@]2(C)NC(=O)N(c3ccc(C(=O)O)cc3)C=C2C2CC(F)(F)C2)cc1Cl [Example 348] |  |  |  |  | 0.046 | 0.039 |
| CC(C)(C)CCc1ccc([C@]2(C)NC(=O)N(CCCC(=O)O)C=C2C2(C)CC2)cc1Cl [Example 52] | 0.01 |  | 0.015 |  |  |  |
| CC(C)C1=CN(CCCCC(=O)O)C(=O)N[C@]1(C)c1ccc(CCC(C)(C)C)c(Cl)c1 [Example 47] | 1.1 |  | 0.764 |  |  |  |
| CC(C)C1=CN(C2CCC(C(=O)O)C2)C(=O)N[C@@]1(C)c1ccc(CCC(C)(C)C)c(Cl)c1 (single isomer, unassigned) [Example 278] |  |  |  |  | 0.013 | 0.013 |
| CC(C)C1=CN([C@H]2CC[C@@H](C(=O)O)CC2)C(=O)N[C@@]1(C)c1ccc(CCC(C)(C)C)c(Cl)c1 [Example 67] | 0.023 |  | 0.017 |  |  |  |
| CC(C)C1=CN(CCC(=O)O)C(=O)N[C@@]1(C)c1ccc([C@H]2C[C@@H](C(C)C)C2)c(Cl)c1 [Example 258, 3-{(S)-4-[3-Chloro-4-(3-isopropyl-cyclobutyl)-phenyl]-5-isopropyl-4-methyl-2-oxo-3,4-dihydro-2H-pyrimidin-1-yl}-propionic Acid] |  |  |  |  | 0.022 | 0.016 |
| CC(C)(C)CCc1ccc(C2NC(=O)N([C@H]3C[C@H](C(=O)O)C3)C=C2C(C)(C)C)cc1Cl (single isomer, unassigned) [Example 102] | > 8 | (76%) | > 8 | (76%) |  |  |
| CCCCCc1ccc(C2(C)NC(=O)N(CCCC(=O)O)C=C2C(C)C)cc1Cl (racemic) [Example 53] | 0.036 |  | 0.021 |  |  |  |
| CC(C)CCC1=CN(CCCC(=O)O)C(=O)N[C@]1(C)c1ccc(CCC(C)(C)C)c(Cl)c1 [Example 43] | 0.564 |  | 0.835 |  |  |  |
| CC(C)C1=CN(CCC(=O)O)C(=O)N[C@]1(C)c1ccc(CCC(C)(C)C)c(Cl)c1 [Example 86, 3-{(R)-4-[3-Chloro-4-(3,3-dimethyl-butyl)-phenyl]-5-isopropyl-4-methyl-2-oxo-3,4-dihydro-2H-pyrimidin-1-yl}-propionic Acid] | 6.77 |  | > 8 | (51%) |  |  |
| CC(C)C1=CN(CCC(=O)O)C(=O)N[C@@]1(C)c1ccc(CC2CCC2)c(Cl)c1 [Example 291] |  |  |  |  | 1.08 | 0.138 |
| CC(C)C1=CN(C2CC3(CC(C(=O)O)C3)C2)C(=O)N[C@@]1(C)c1ccc(CCC(C)(C)C)c(Cl)c1 (single isomer, unassigned) [Example 232] |  |  |  |  | 0.015 | 0.019 |
| CC(C)(C)CCc1ccc([C@@]2(C)NC(=O)N(CCCC(=O)O)C=C2C2CCC2)cc1Cl [Example 58] | 1.25 |  | 1.65 |  |  |  |
| CC(C)C1=CN([C@H]2CC[C@H](CC(=O)O)CC2)C(=O)N[C@@]1(C)c1ccc(CCC(C)(C)C)c(Cl)c1 [Example 262] |  |  |  |  | 0.022 | 0.022 |
| CC(C)C1=CN(CCC(=O)O)C(=O)N[C@@]1(C)c1ccc(CC(O)C(C)(C)C)c(Cl)c1 (single isomer, unassigned) [Example 311] |  |  |  |  | 0.086 | 0.094 |
| CC(C)C1=CN([C@@H]2CC(=O)N(CC(=O)O)C2)C(=O)N[C@@]1(C)c1ccc(CCC(C)(C)C)c(Cl)c1 [Example 163] | 0.143 |  | 0.267 |  |  |  |
| CC(C)C1=CN(C2(CC(=O)O)CC2)C(=O)N[C@@]1(C)c1ccc(CCC(C)(C)C)c(Cl)c1 [Example 228] |  |  |  |  | 0.032 | 0.032 |
| CC(C)C1=CN(CCC2(C(=O)O)CC2)C(=O)N[C@@]1(C)c1ccc(CCC(C)(C)C)c(Cl)c1 [Example 72] | 0.013 |  | 0.017 |  |  |  |
| COC(=O)[C@H]1C[C@H](N2C=C(C(C)(C)CCC(=O)O)C(C)(c3ccc(CCC(C)(C)C)c(Cl)c3)NC2=O)C1 (single isomer, unassigned) [Example 181] | 0.018 |  | 0.032 |  |  |  |
| CC(C)(C)CCc1ccc([C@]2(C)NC(=O)N([C@H]3C[C@H](C(=O)O)C3)C=C2C2CC(F)(F)C2)cc1Cl [Example 96] | 0.033 |  | 0.026 |  |  |  |
| CC(C)C1=CN(CCC(=O)O)C(=O)N[C@@]1(C)c1ccc(CCC(C)(C)F)c(Cl)c1 [Example 294] |  |  |  |  | 0.068 | 0.034 |
